Measured values reported in US20260152501A1, “CYCLIN MODULATOR” (EUBULUS BIOTHERAPEUTICS (HONG KONG) LIMITED, priority 2022, published 2026).

Tests used:
HepG2 cells = experiment: Antiproliferative effect on HepG2 cells; assay type: cell-based; settings: Homo sapiens
Method: Reagents: RPMI-1640 medium, McCoy's 5A medium, IMDM medium, MEM medium, L-15 medium, fetal bovine serum, Penicillin-Streptomycin double antibody, trypsin, etc., 2-mercaptoethanol, NEAA, pyruvate, etc.
The test cells were cultured in conventional ways, and the cells should be passed for at least 2 generations before plating.
All cells were subjected to IC50 test for corresponding samples.
The fluorescence intensity of each well was detected using the Alarm blue method, and EC50 was calculated.
IC50 was calculated according to the following formula:
[formula] • wherein, Min, Max and Slope represent the minimum, maximum and slope respectively.

Cyclin K = experiment: Immunohistochemistry (IHC) staining of Cyclin K in HepG2 cells; assay type: cell-based; settings: incubated with compound 2 hours, CCNK antibody
Method: Appropriate amount of compounds were added to the cultured cells. The cells were incubated in a tissue culture incubator at 37° C. for 2 hours.
After washing the cultured cells twice with PBS, 100 μL 10% neutral buffered formalin were added and the cells were fixed for 20 minutes.
After washing 3 times with PBS, immunohistochemical staining was performed using CCNK antibody and general two-step detection kit (mouse/rabbit enhanced polymer detection system, PV-9000, Zsbio Inc, Beijing).
Specifically, 100 μL of endogenous peroxidase blocker in the kit was added, cells were incubated at room temperature for 10 minutes; rinsed with PBS buffer for 3 minutes×3 times.
100 μL CCNK antibody 1:5000 dilution was added, and the cells were incubated at 37° C. for 60 minutes; rinsed with PBS buffer for 3 minutes×3 times.
100 μL reaction enhancer was added, and the cells were incubated at 37° C. for 20 minutes; rinsed with PBS buffer for 3 minutes×3 times.
100 μL enhanced enzyme-labeled goat anti-mouse/rabbit IgG polymer was added, and the cells were incubated at 37° C. for 20 minutes; rinsed with PBS buffer for 3 minutes×3 times.
The cells were placed in 75% ethanol, soaked for 3 minutes×2 times; placed in 95% ethanol, soaked for 3 minutes×2 times; after removing excess liquid, placed in anhydrous ethanol, soaked for 3 minutes×3 times; after removing excess liquid, air dried, observed under a microscope and taken pictures after sealing.

Row | IC50 (HepG2 cells) [nM] | SMILES | Cyclin K IHC data of HepG2 cells (Cyclin K)
1 | 100 to 300 | CC(C)n1cnc2c(NCc3ccc(-c4ccccc4O)cc3)nc(N3CCNCC3)nc21 [UB-046, 4′-(((9-isopropyl-2-(piperazin-1-yl)-9H-purin-6-yl)amino)methyl)-[1,1′-biphenyl]-2-ol] | D (D > 278 nM)
2 | 100 to 300 | CCCOc1ccccc1-c1ccc(CNc2nc(N3CCNCC3)nc3c2ncn3C(C)C)cc1 [UB-049, 9-isopropyl-2-(piperazin-1-yl)-N-((2′-propoxy-[1,1′-biphenyl]-4-yl)methyl)-9H-purin-6-amine] | D (D > 278 nM)
3 | < 50 | CC(C)n1cnc2c(NCc3ccc(-c4ccccc4)cc3)nc(N3CCN[C@@H](C)C3)nc21 [UB-026, (S)-N-([1,1′-biphenyl]-4-ylmethyl)-9-isopropyl-2-(3-methylpiperazin-1-yl)-9H-purin-6-amine] | B (31 nM < B <= 93 nM)
4 | 50 to 100 | CC(C)n1cnc2c(NCc3ccc(-c4ccccc4)cc3)nc(N3CCNC[C@@H]3C)nc21 [UB-021, (S)-N-([1,1′-biphenyl]-4-ylmethyl)-9-isopropyl-2-(2-methylpiperazin-1-yl)-9H-purin-6-amine] | C (93 nM < C <= 278 nM)
5 | < 50 | c1ccc(-c2ccc(CNc3nc(N4CCNCC4)nc4c3ncn4C3CCC3)cc2)cc1 [UB-052, N-([1,l′-biphenyl]-4-ylmethyl)-9-cyclobutyl-2-(piperazin-1-yl)-9H-purin-6-amine] | C (93 nM < C <= 278 nM)
6 | 50 to 100 | CC(C)n1cnc2c(NCc3ccc(-c4ccccc4OCCO)cc3)nc(N3CCNCC3)nc21 [UB-047, 2-((4′-(((9-isopropyl-2-(piperazin-1-yl)-9H-purin-6-yl)amino)methyl)-[1,1′-biphenyl]-2-yl)oxy)ethan-1-ol] | D (D > 278 nM)
7 | 100 to 300 | CC(C)n1cnc2c(NCc3ccc(-c4ccccc4)c(OCCO)c3)nc(N3CCNCC3)nc21 [UB-043, 2-((4-(((9-isopropyl-2-(piperazin-1-yl)-9H-purin-6-yl)amino)methyl)-[1,1′-biphenyl]-2-yl)oxy)ethanol] | D (D > 278 nM)
8 | > 300 | CCCOc1cc(CNc2nc(N3CCNCC3)nc3c2ncn3C(C)C)ccc1-c1ccccc1 [UB-044, 9-isopropyl-2-(piperazin-1-yl)-N-((2-propoxy-[1,1′-biphenyl]-4-yl)methyl)-9H-purin-6-amine] | D (D > 278 nM)
9 | > 300 | CC(C)n1cnc2c(NCc3ccc(-c4ccccc4OCCN)cc3)nc(N3CCNCC3)nc21 [UB-048, N-((2′-(2-aminoethoxy)-[1,1′-biphenyl]-4-yl)methyl)-9-isopropyl-2-(piperazin-1-yl)-9H-purin-6-amine] | D (D > 278 nM)
10 | > 300 | Cn1cc(-n2cnc3c(NCc4ccc(-c5ccccc5)cc4)nc(N4CCNCC4)nc32)cn1 [UB-055, N-([1,1′-biphenyl]-4-ylmethyl)-9-(1-methyl-1H-pyrazol-4-yl)-2-(piperazin-1-yl)-9H-purin-6-amine] | D (D > 278 nM)

The next lines start with the molecule.

Row | SMILES | IC50 (HepG2 cells) [nM] | Cyclin K IHC data of HepG2 cells (Cyclin K)
11 | CC(C)n1cnc2c(NCc3ccc(-c4ccccc4)cc3)nc(N[C@H]3C[C@@H](N)C3)nc21 [UB-041, N6-([1,1′-biphenyl]-4-yl-methyl)-N2-((1s,3s)-3-aminocyclobutyl)-9-isopropyl-9H-purin-2,6-diamine] | < 50 | C (93 nM < C <= 278 nM)
12 | CC(C)n1cnc2c(NCc3ccc(-c4ccccc4)c(OCCCCO)c3)nc(N3CCNCC3)nc21 [UB-045, 4-((4-(((9-isopropyl-2-(piperazin-1-yl)-9H-purin-6-yl)amino)methyl)-[1,1′-biphenyl]-2-yl)oxy)butan-1-ol] | > 300 | D (D > 278 nM)
13 | CC(C)n1cnc2c(NCc3ccc(-c4ccccc4)cc3)nc(N3CCN[C@H](CCO)C3)nc21 [UB-031, (R)-2-(4-(6-(([1,1′-biphenyl]-4-ylmethyl)amino)-9-isopropyl-9H-purin-2-yl)piperazin-2-yl) ethan-1-ol] | – | B (31 nM < B <= 93 nM)
14 | CC(C)n1cnc2c(NCc3ccc(-c4ccccc4)cc3)nc(N[C@@H]3CCNC3)nc21 [UB-038, (R)-N6-([1,1′-biphenyl]-4-ylmethyl)-9-isopropyl-N2-(pyrrolidin-3-yl)-9H-purin-2,6-diamine] | < 50 | C (93 nM < C <= 278 nM)
15 | CC(C)n1cnc2c(NCc3ccc(-c4ccccc4)cc3)nc(OC[C@@H]3CNCCN3)nc21 [UB-033, (S)-N-([1,l′-biphenyl]-4-ylmethyl)-9-isopropyl-2-(piperazin-2-ylmethoxy)-9H-purin-6-amine] | 50 to 100 | C (93 nM < C <= 278 nM)
16 | CC(C)n1cnc2c(NCc3ccc(-c4ccccc4)cc3)nc(N[C@H]3CC[C@@H](N)C3)nc21 [UB-039, N6-([1,1′-biphenyl]-4-yl-methyl)-N2-((1S,3R)-3-aminocyclopentyl)-9-isopropyl-9H-purin-2,6-diamine] | 50 to 100 | C (93 nM < C <= 278 nM)
17 | CC(C)n1cnc2c(NCc3ccc(-c4ccccc4)cc3)nc(N3CCN[C@@H](CO)C3)nc21 [UB-028, (R)-(4-(6-(([1,1′-biphenyl]-4-ylmethyl)amino)-9-isopropyl-9H-purin-2-yl)piperazin-2-yl) methanol] | – | A (A <= 31 nM)
18 | CC(C)n1cnc2c(NCc3ccc(-c4ccccc4)cc3)nc(NC3CCNCC3)nc21 [UB-016, N6-([1,1′-biphenyl]-4-yl-methyl)-9-isopropyl-N2-(Piperidin-4-yl)-9H-purin-2,6-diamine] | – | C (93 nM < C <= 278 nM)
19 | CC(C)n1cnc2c(NCc3ccc(-c4ccccc4)cc3)nc(N3CCNC[C@@H]3CCO)nc21 [UB-025, (S)-2-(1-(6-(([1,1′-biphenyl]-4-ylmethyl)amino)-9-isopropyl-9H-purin-2-yl)piperazin-2-yl) ethan-1-ol] | – | A (A <= 31 nM)
20 | CC(C)n1cnc2c(NCc3ccc(-c4ccccc4)cc3)nc(N3CCNC4(CC4)C3)nc21 [UB-059, N-([1,1′-biphenyl]-4-ylmethyl)-9-isopropyl-2-(4,7-diazaspiro[2.5]octan-7-yl)-9H-purin-6-amine] | – | B (31 nM < B <= 93 nM)
21 | CC(C)n1cnc2c(NCc3ccc(-c4ccccc4)cc3)nc(N3C[C@@H](C)N[C@@H](C)C3)nc21 [UB-060, N-([1,1′-biphenyl]-4-ylmethyl)-2-((3R,5S)-3,5-dimethylpiperazin-1-yl)-9-isopropyl-9H-purin-6-amine] | – | A (A <= 31 nM)
22 | CC(C)n1cnc2c(NCc3ccc(-c4ccccc4)cc3)nc(N3C[C@@H](C)N[C@H](C)C3)nc21 [UB-032, N-([1,1′-biphenyl]-4-ylmethyl)-2-((3R,5R)-3,5-dimethylpiperazin-1-yl)-9-isopropyl-9H-purin-6-amine] | – | D (D > 278 nM)
23 | CC(C)n1cnc2c(NCc3ccc(-c4ccccc4)cc3)nc(N3CCN[C@@H](CCO)C3)nc21 [UB-030, (S)-2-(4-(6-(([1,1′-biphenyl]-4-ylmethyl)amino)-9-isopropyl-9H-purin-2-yl)piperazin-2-yl) ethan-1-ol] | – | B (31 nM < B <= 93 nM)
24 | CC(C)n1cnc2c(NCc3ccc(-c4ccccc4)c(OCCN)c3)nc(N3CCNCC3)nc21 [UB-062, N-((2-(2-aminoethoxy)-[1,l′-biphenyl]-4-yl)methyl)-9-isopropyl-2-(piperazin-1-yl)-9H-purin-6-amine] | > 300 | D (D > 278 nM)
25 | CC(C)n1cnc2c(NCc3ccc(-c4ccccc4)cc3)nc(N[C@H]3CCNC3)nc21 [UB-037, (S)-N6-([1,1′-biphenyl]-4-ylmethyl)-9-isopropyl-N2-(pyrrolidin-3-yl)-9H-purin-2,6-diamine] | < 50 | C (93 nM < C <= 278 nM)
26 | CC(C)n1cnc2c(NCc3ccc(-c4ccccc4)cc3)nc(N3CCN[C@H](CO)C3)nc21 [UB-029, (S)-(4-(6-(([1,1′-biphenyl]-4-ylmethyl)amino)-9-isopropyl-9H-purin-2-yl)piperazin-2-yl) methanol] | – | B (31 nM < B <= 93 nM)
27 | CC(C)n1cnc2c(NCc3ccc(-c4ccccc4)cc3)nc(N3CCNC[C@H]3CCO)nc21 [UB-024, (R)-2-(1-(6-(([1,1′-biphenyl]-4-ylmethyl)amino)-9-isopropyl-9H-purin-2-yl)piperazin-2-yl) ethan-1-ol] | – | A (A <= 31 nM)
28 | Fc1cccc(-n2cnc3c(NCc4ccc(-c5ccccc5)cc4)nc(N4CCNCC4)nc32)c1 [UB-054, N-([1,1′-biphenyl]-4-ylmethyl)-9-(3-fluorophenyl)-2-(piperazin-1-yl)-9H-purin-6-amine] | – | D (D > 278 nM)
